Results reported in BindingDB's records for doi:10.1021/ml1002508 (2011).

Experiment: Agonist activity at androgen receptor expressed in mouse C2C12 cells assessed as osteoblast differentiation after 5 days

Molecule Cc1c(N[C@@H](c2nnc(-c3ccc(C#N)cc3)o2)[C@H](C)O)ccc(C#N)c1Cl [2-chloro-4-((1R,2S)-1-(5-(4-cyanophenyl)-1,3,4-oxadiazol-2-yl)-2-hydroxypropylamino)-3-methylbenzonitrile] has an EC50 of 0.1 nM.
